For 18 compounds, GI50 and TGI results are on record in PubChem BioAssay (NCI).

Test systems include SF-295 CNS; SK-OV-3 ovarian; HOP-62 NSCLC; HCC-2998 colon; ACHN renal; M14 melanoma; DU-145 prostate; MDA-MB-435; MDA-MB-231 breast; HS 578T breast.
Experiment in all cases: inhibition of tumour cell growth, NCI panel, 48 h

Structures are written as SMILES. Several values for one entry are separate records, joined by “and”; a condition that tells them apart may be missing. Equal entries are not always repeated.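 48-hour exposure; five concentrations; linearly interpolated endpoints. The concentration for 50% growth inhibition is given as GI50. Definition used: TGI = concentration required for complete inhibition of growth.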

For `[Cl-].[Gd+3].[O-]/N=C(\c1ccccc1)c1ccccn1.[O-]/N=C(\c1ccccc1)c1ccccn1.[O-]/N=C(\c1ccccc1)c1ccccn1`, the GI50 was 36.6 µM in the test on SF-295 CNS; 48 µM in the test on SK-OV-3 ovarian; 41.8 µM in the test with HOP-62 NSCLC; 30.7 µM with HCC-2998 colon; 64.3 µM in the test with ACHN renal; 51.4 µM with M14 melanoma. The TGI with SF-295 CNS, with SK-OV-3 ovarian, in the test with HOP-62 NSCLC, with HCC-2998 colon, in the test with ACHN renal and in the test on M14 melanoma was above 100 µM in each case.

Turning to `CN(C)c1ccc(O[Si](Oc2ccc(N(C)C)cc2)(Oc2ccc(N(C)C)cc2)Oc2ccc(N(C)C)cc2)cc1`, the TGI in the test on SF-295 CNS, with SK-OV-3 ovarian, in the test on HOP-62 NSCLC, in the test with HCC-2998 colon, with ACHN renal and with M14 melanoma was above 100 µM each time.

On to `COC(=O)c1sc(=NC(=S)N2CCCCC2)sc1C(=O)OC`, for which the TGI in the test with SK-OV-3 ovarian, in the test with HOP-62 NSCLC, in the test on HCC-2998 colon, in the test on ACHN renal and in the test on M14 melanoma was above 100 µM throughout.

As for `Nc1ccc(C(=O)/C=C/c2ccccc2O)cc1`, the TGI in the test on SF-295 CNS, in the test with SK-OV-3 ovarian, in the test on HOP-62 NSCLC, with HCC-2998 colon, in the test with ACHN renal and in the test on M14 melanoma was above 100 µM each time.

Take `COc1ccc2c(c1)[n+](=O)c(C(C)=O)c(C)n2[O-]`: the TGI in the test with SF-295 CNS, in the test on SK-OV-3 ovarian, with HOP-62 NSCLC, with HCC-2998 colon, in the test on ACHN renal and in the test with M14 melanoma was above 100 µM throughout.

Regarding `NNC(=O)N/N=C1\CN(c2ccc(Cl)cc2Cl)C(=O)C(=O)C1c1nc2ccccc2o1` (stereo unspecified), the TGI in the test with SK-OV-3 ovarian, with HOP-62 NSCLC, in the test with HCC-2998 colon, in the test with ACHN renal and in the test with M14 melanoma was above 100 µM throughout.

On to `CCCCC[C@@H](C/C=C/CCC(=O)NC/C(=C/Cl)[C@H]1C(=O)C(C)(C)C(=O)[C@@H](C)[C@@]1(C)O)OC`, for which the GI50 is 16.8 µM in the test with DU-145 prostate; 13.5 µM with SF-295 CNS; 30.8 µM with SK-OV-3 ovarian; 18 µM in the test on ACHN renal; 18.7 µM with MDA-MB-435; 16.9 µM in the test on M14 melanoma. Besides, the GI50 with MDA-MB-231 breast was 16 µM. Further, the TGI with DU-145 prostate was 31.8 µM; in the test with SF-295 CNS it was 26.4 µM; with SK-OV-3 ovarian, 68.7 µM; in the test with ACHN renal it was 32.6 µM; with MDA-MB-435, 36.3 µM; with M14 melanoma, 31.2 µM. In the test with MDA-MB-231 breast, this compound gave a TGI of 32.3 µM.

As for `CCOc1ccccc1NC(=O)C1=C(C)NC(C)=C(C(=O)Nc2ccccc2OCC)C1c1ccc([N+](=O)[O-])cc1`, the TGI in the test with SF-295 CNS, with SK-OV-3 ovarian, in the test on HOP-62 NSCLC, with HCC-2998 colon, in the test on ACHN renal and with M14 melanoma was above 100 µM in each case.

Regarding `Nc1nc(=S)[nH]c(C(=O)Nc2nccs2)c1-c1ccccc1`, the TGI in the test with SF-295 CNS, with SK-OV-3 ovarian, in the test on HOP-62 NSCLC, in the test on HCC-2998 colon, with ACHN renal and with M14 melanoma was above 100 µM each time.

On to `CC(=O)OCC1OC(n2c(=S)n(-c3ccccc3)c(=O)c3cc(Br)cc(Br)c32)C(OC(C)=O)C(OC(C)=O)C1OC(C)=O` (stereo unspecified), for which the GI50 in the test on SF-295 CNS is 11.7 µM and 60.3 µM; in the test with SK-OV-3 ovarian, 45.1 µM and > 100 µM; in the test with HOP-62 NSCLC, 19.5 µM and > 100 µM; in the test on M14 melanoma it was 28.6 µM and > 100 µM. The TGI in the test with SF-295 CNS was 71.4 µM and > 100 µM; in the test on SK-OV-3 ovarian it was above 100 µM; in the test with HOP-62 NSCLC, 54.8 µM and > 100 µM; in the test with HCC-2998 colon, above 100 µM; in the test with ACHN renal it was above 100 µM; with M14 melanoma it was above 100 µM.

Regarding `CCCCCCCCCCCCCCC(C)CCC(=O)O` (stereo unspecified), the TGI with SF-295 CNS, with HOP-62 NSCLC and in the test with ACHN renal was above 100 µM in each case.

As to `COCC1N=C(c2cc(OC)c(OC)c(OC)c2-c2cc3c(cc2[C@H](C)O)OCO3)O[C@H]1c1ccccc1` (stereo partly specified), the TGI in the test with SF-295 CNS, in the test on SK-OV-3 ovarian, in the test on HCC-2998 colon, in the test on ACHN renal and with M14 melanoma was above 100 µM throughout.

As to `O=C(CC1=Nc2nnc(-c3nnc4n3C(=O)C(CC(=O)C3CC3)=N4)n2C1=O)C1CC1`, the TGI in the test on SF-295 CNS, in the test with SK-OV-3 ovarian, in the test with HOP-62 NSCLC, in the test with HCC-2998 colon, in the test with ACHN renal and in the test with M14 melanoma was above 100 µM throughout.

Turning to `c1ccc2c3c([nH]c2c1)C1C2CCCCN2C(c2ccncc2)N1CC3` (stereo unspecified), the TGI in the test on SF-295 CNS, with SK-OV-3 ovarian, in the test on HOP-62 NSCLC, in the test on ACHN renal and with M14 melanoma was above 100 µM each time.

Take `OCC(O)C(O)C(O)C(O)c1nn[nH]n1` (stereo unspecified): the TGI in the test with SF-295 CNS, with SK-OV-3 ovarian, with HOP-62 NSCLC, with ACHN renal and in the test on M14 melanoma was above 100 µM in each case.

`Clc1ccc2c(NCCCN3CCN(c4nc(N5CCOCC5)nc5ccccc45)CC3)ccnc2c1`: the GI50 with HS 578T breast was 1500 nM; in the test on HCC-2998 colon it was 1.77 µM; in the test on MDA-MB-435 it was 1.81 µM; with M14 melanoma, 1.39 µM. Moreover, the TGI with HS 578T breast is 3.72 µM; in the test on HCC-2998 colon it was 3.28 µM; with MDA-MB-435, 3.36 µM; in the test with M14 melanoma it was 2.85 µM.

Turning to `Cc1ccc(C2=C(Cl)C(=O)C(c3ccc(C)cc3)=C(Cl)C2=O)cc1`, the TGI in the test with HS 578T breast, in the test on DU-145 prostate, in the test on SF-295 CNS, in the test with SK-OV-3 ovarian, with HOP-62 NSCLC and in the test on ACHN renal was above 100 µM in each case. In addition, the TGI with MDA-MB-435 and with M14 melanoma was above 100 µM each time.

Regarding `CC(=O)[O-].[Mn+3].[O-]c1ccc(Cl)cc1C=NCCN=Cc1cc(Cl)ccc1[O-]`, the GI50 with SF-295 CNS was above 100 µM; in the test with SK-OV-3 ovarian it was above 100 µM; in the test with HCC-2998 colon it was 66.3 µM; with ACHN renal, above 100 µM; in the test on M14 melanoma, 71.6 µM. Also, the TGI with SF-295 CNS, in the test with SK-OV-3 ovarian, with HCC-2998 colon, in the test on ACHN renal and in the test on M14 melanoma was above 100 µM in each case.
